Laboratory results: PubChem BioAssay AID1159565 (GlaxoSmithKline (GSK), 2015)
Active and inactive are the calls of the source. How the calls were made is not given here.

Tested on: T. cruzi-infected H9C2 cardiomyocytes, high-content imaging
Experiment: intracellular T. cruzi amastigote inhibition, imaging, H9C2 host cardiomyocytes, host toxicity (AID 1159565);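 further: infected cells incubated 72 h after plating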
[1] = measured here: H9C2 host cell toxicity
[2] = measured here: amastigotes per cell

SMILES | IC50 | IC50 [1] [µM] | IC50 [2] [µM]
O=C(Nc1ccccc1C(=O)Nc1ccccn1)c1ccco1 | > 50 µM (inactive) | > 50 | > 50
Cn1cncc1CN1CCC2(CC1)COC(Cc1ccccc1)C2 (stereo not given) | 0.5 µM | > 50 | 0.32
Cc1nn(-c2nc(N)nc(-c3ccccn3)n2)c(N)c1-c1ccccc1 | 5 µM | 13 | 1.3
Cc1ccc2sc(NC(=O)Cn3cnc([N+](=O)[O-])n3)nc2c1 | 4 µM | > 50 | 0.5
O=C(CCCn1cnc([N+](=O)[O-])n1)Nc1cccc(Cl)c1 | 0.5 µM | > 50 | 0.16
O=C(NCCc1ccccn1)C(c1cn[nH]c1)N1CCN(c2ccc(Cl)c(Cl)c2)CC1 (stereo not given) | 0.16 µM | > 50 | 0.13
O=[N+]([O-])c1ccc(C2=CC(c3ccccc3)=NCCN2)cc1 | 1 µM | 32 | 0.25
O=C(Cn1cnc2c(-c3ccccc3)csc2c1=O)N1CCCCC1 | 4 µM | > 50 | 3.2
CN(C)CCN(C)Cc1ccc(Cl)cc1NS(=O)(=O)c1ccc(Cl)c(Cl)c1 | 2 µM | 5 | 2
CCS(=O)(=O)c1cccc(C(=O)Nc2nc(-c3ccccn3)cs2)c1 | 2.5 µM | 4 | 1.6
COc1cccc(-c2cc(C(F)(F)F)nc(-n3ccc([N+](=O)[O-])n3)n2)c1 | 0.4 µM | > 50 | 0.2
O=C(Nc1nc(-c2ccc(S(=O)(=O)N3CCOCC3)cc2)cs1)c1ccc([N+](=O)[O-])cc1 | 1.6 µM | > 50 | 0.5
Cc1ccc2onc(Nc3ccnc(Nc4cccc(S(C)(=O)=O)c4)n3)c2c1 | 0.63 µM | 5 | 0.4
N#Cc1ccc(S(=O)(=O)N2CCC3(CCN(c4ccccc4)C3=O)CC2)cc1 | 1 µM | > 50 | 0.63
Cc1cc2cc(CNc3ccc4c(c3)OCO4)c(=O)n(CCO)c2cc1C | 0.25 µM | > 50 | 0.2
Cc1[nH]nc(C(F)(F)F)c1NC(=O)CCn1cc(Cl)c([N+](=O)[O-])n1 | 25 µM | > 50 | 6.3
CC(=O)Nc1ccc(-c2csc(NC(=O)c3ccc([N+](=O)[O-])s3)n2)cc1 | 0.13 µM | 5 | 0.1
CN1CCC(N(C)c2nccc(N3CCN(C(=O)c4cccc(-c5cccnc5)c4)CC3)n2)CC1 | 1.3 µM | 7.9 | 1
O=C(O)[C@H]1C[C@@H]1c1ccc(-c2ccc(CN(CCc3ccccn3)C(=O)C3CCC3)cc2)cc1 | 32 µM | > 50 | 32
Cc1ccc2c(c1)-c1onc(C(=O)N3CCCCC3c3cccnc3)c1CO2 (stereo not given) | 0.13 µM | > 50 | 0.13
Cc1nc2nc(C)c(Cc3ccc(C(C)C)cc3)c(=O)n2[nH]1 | 0.79 µM | > 50 | 0.25
O=C(NNC(=O)c1ccccn1)c1ccc(-c2ccccc2)cc1 | 1.6 µM | 2 | 1.3
O=C(NC(CO)c1ccc(F)cc1)c1ccc(-c2c[nH]c3ncccc23)s1 (stereo not given) | 16 µM | 4 | 13
CC(C)(C)c1cc(NC2CC2)nc(-c2ccccn2)n1 | 1.6 µM | 0.32 | 1.3
COc1ccc(-c2cc(C)no2)cc1S(=O)(=O)Nc1ccc(F)c(Cl)c1 | 3.2 µM | 50 | 4

SMILES | IC50 | IC50 [1] [µM] | IC50 [2] [µM]
CC(=O)NC1(c2ccccc2)CCN(CC(=O)Nc2ccccc2-c2ccccc2)CC1 | 7.9 µM | > 50 | 1.6
COc1ccc(C(=O)Nc2c(C)nn(COc3cccc(C(F)(F)F)c3)c2C)cc1 | 40 µM | > 50 | 25
COc1ccc(-c2ccc3nnc(-c4ccc(O)c(OC)c4)n3c2)cn1 | 3.2 µM | > 50 | 2
CS(=O)(=O)NC1CCC(Oc2cc3cnccc3cc2-c2ccsc2)CC1 (stereo not given) | 0.16 µM | > 50 | 0.1
CCOc1ccc(OCC(=O)N2c3ccccc3CC2C(=O)NC)cc1 (stereo not given) | > 50 µM (inactive) | > 50 | > 50
CC(C)COC(=O)Nc1ccc(N2CCC(CNS(=O)(=O)c3ccccc3)CC2)c(F)c1 | 7.9 µM | > 79 | 7.9
COc1ccccc1-c1c(C)[nH]c2nc(N)nc(C)c12 | 0.25 µM | > 50 | 0.13
O=C(CN1CCN(S(=O)(=O)c2cccc([N+](=O)[O-])c2)CC1)Nc1ccc(Oc2ccccc2)cc1 | 2.5 µM | > 50 | 1.3
CCc1ccccc1[C@@H](C)NC(=O)c1cnc2c(cnn2CC)c1NC1CCN(C(N)=O)CC1 | > 50 µM (inactive) | > 50 | 40
O=C(Cc1ccc2c(c1)CCC2)Nc1n[nH]c(-c2ccccn2)n1 | 10 µM | > 50 | 10
Cc1ccc(S(=O)(=O)Cn2nnnc2C(c2cccnc2)N2CCN(c3ccccc3)CC2)cc1 (stereo not given) | 0.32 µM | > 50 | 0.32
COc1ccc(C(C)N(C)c2ncc3c(N)nc(N)nc3n2)cc1F (stereo not given) | 0.2 µM | 25 | 0.063
COc1ccc2ncc(Cl)c(CCN3CC[C@@H](NCc4cc5c(cn4)OCS5)[C@H](O)C3)c2n1 | 0.079 µM | 25 | 0.063
Cc1ccccc1NS(=O)(=O)c1ccc2[nH]cc(C(=O)NC3CCCC3)c(=O)c2c1 | 32 µM | 20 | 25
COc1ccc([N+](=O)[O-])cc1NC(=O)Nc1cccc(Cl)c1 | 10 µM | > 50 | 0.4
Nc1nc(-c2ccccn2)nc(N)c1Cc1c(F)cccc1Cl | 2 µM | 1.3 | 1.6
O=C(CC1(O)C(=O)N(Cc2ccccc2)c2ccc(Br)cc21)c1cccnc1 (stereo not given) | 25 µM | 3.2 | 20
COc1cc(-c2nc(N3CCOCC3)sc2-c2ccnc(NC3CCOCC3)n2)ccc1Cl | 0.16 µM | > 50 | 0.1
O=c1ccc2ccc(F)c3c2n1C[C@H]3CN1CCC(NCc2cc3ccccc3o2)CC1 | 0.2 µM | 32 | 0.13
CN(C)Cc1cccc(Nc2nccc(-c3ccc(NCCN)c(C#N)c3)n2)c1 | 10 µM | 2 | 1.6
c1ccc2sc(Nc3nc4ncccc4[nH]3)nc2c1 | 1.6 µM | 1 | 1.3
CCN(CC)S(=O)(=O)c1ccc(C)c(NC(=O)c2cc(Cl)c3c(c2)OCO3)c1 | > 50 µM (inactive) | 25 | > 50
Cc1cc(C)c(C#N)c(SCC(=O)c2ccc3c(c2)OCO3)n1 | 0.79 µM | > 50 | 0.4
O=C(Nc1nc(-c2ccccn2)cs1)C1CCc2ccccc2C1 (stereo not given) | 2.5 µM | 4 | 2
CN(Cc1nc2ccccc2s1)C(=O)C=Cc1cc2ccccc2o1 | 0.79 µM | > 50 | 1
